Assay results taken from US20060069132A1, “Azolecarboxamide herbicides” (priority 2004, published 2006).

Legend:
rice = experiment: Test B pre-/postemergence herbicide test; format: in vivo, Oryza sativa
Procedure, shortened: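 Visual rating, 0 (no effect) to 100 (complete control), versus untreated controls after 13–15 d in greenhouse. Pre- and postemergence applications (postemergence plants 2–18 cm, 1–4 leaves); flooded paddy arm at 2-leaf stage. Compounds in non-phytotoxic solvent plus surfactant.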

cocklebur = experiment: Test C pre-/postemergence herbicide test; format: in vivo, Xanthium strumarium
Procedure, shortened: (§1)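 Pre/post spray; non-phytotoxic solvent + surfactant. Post-timing 1–4 leaves, 2–18 cm. Read-out: visual % control vs untreated, day 12–14, greenhouse.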

large crabgrass = experiment: Test C pre-/postemergence herbicide test; format: in vivo, Digitaria sanguinalis; settings: for Crabgrass, Large plant response rating: 500 g ai/ha
Procedure, shortened: as §1

pigweed = experiment: Test C pre-/postemergence herbicide test; format: in vivo, Amaranthus retroflexus; settings: for Pigweed plant response rating: 500 g ai/ha
Procedure, shortened: as §1

[1] = system: common (oilseed) sunflower; experiment: Test C pre-/postemergence herbicide test; format: in vivo, Helianthus annuus; settings: for Sunflower plant response rating: Preemergence, 500 g ai/ha, scale 0 to 100, 0 no effect, 100 complete control
Procedure, shortened: as §1

velvetleaf [2] = experiment: Test C pre-/postemergence herbicide test; format: in vivo, Abutilon theophrasti; settings: for Velvetleaf plant response rating: 500 g ai/ha
Procedure, shortened: as §1

giant foxtail = experiment: Test A pre-/postemergence herbicide test; format: in vivo, Setaria faberi
Procedure, shortened: (§2)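 Greenhouse injury scoring (0–100, complete control = 100) at approximately ten days follows simultaneous pre- and postemergence application. Soil received a directed spray after seeding; seedlings of 2–10 cm at the one- to two-leaf stage were sprayed to runoff.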

velvetleaf [3] = experiment: Test A pre-/postemergence herbicide test; format: in vivo, Abutilon theophrasti
Procedure, shortened: as §2

[4] = Preemergence, scale 0 to 100, 0 no effect, 100 complete control
[5] = 62 g ai/ha, preemergence, scale 0 to 100
[6] = Preemergence, 500 g ai/ha, scale 0 to 100, 0 no effect, 100 complete control
[7] = 125 g ai/ha, scale 0 (no effect) to 100 (complete control), visual, 12 to 14 days, preemergence
[8] = 250 g ai/ha, scale 0-100, preemergence
[9] = 250 g ai/ha, scale 0 to 100 (0 no effect, 100 complete control), visual, 12 to 14 days, preemergence
[10] = Postemergence, 250 g ai/ha, 0 to 100 scale, 0 no effect, 100 complete control
[11] = Postemergence, 1000 g ai/ha, 0 to 100 scale, 0 no effect, 100 complete control
[12] = Preemergence, 1000 g ai/ha, visual rating, 0 to 100 scale (0 no effect, 100 complete control)
[13] = preemergence, 250 g ai/ha, visual injury, 0 to 100 scale (0 no effect, 100 complete control)
[14] = 125 g ai/ha, scale 0-100, preemergence
[15] = Postemergence, 125 g ai/ha, scale 0 to 100, 0 no effect, 100 complete control
[16] = Postemergence, 250 g ai/ha, scale 0 to 100, 0 no effect, 100 complete control
[17] = postemergence, 62 g ai/ha, scale 0 to 100
[18] = postemergence, 125 g ai/ha, scale 0 to 100

Structure (SMILES): CCn1nc(C(C)(C)C)cc1C(=O)Nc1cc(C(=O)N(C)C)ccn1 [Compound 156, 2-[[[3-(1,1-dimethylethyl)-1-ethyl-1H-pyrazol-5-yl]carbonyl]amino]-N,N-dimethyl-4-pyridinecarboxamide]
- plant injury at 500 g/ha (rice; Oryza sativa, pre-emergence, 336 h, 500 g ai/ha, visual rating 0-100, 0 no effect, 100 complete control, read-out: Plant response rating, Rice): 100%
- plant injury at 125 g/ha (rice; Oryza sativa, pre-emergence, 336 h, preemergence, 125 g ai/ha, 0 to 100 scale, 0 is no effect, 100 is complete control, read-out: Plant response rating, Rice): 90%
- pest or weed control at 62 g/ha (cocklebur; Xanthium strumarium, pre-emergence, 312 h, 62 g ai/ha, preemergence, scale 0 to 100, read-out: Plant response rating, Cocklebur): 63%
- pest or weed control at 125 g/ha (cocklebur; Xanthium strumarium, pre-emergence, 312 h, 125 g ai/ha, scale 0 (no effect) to 100 (complete control), visual, 12 to 14 days, read-out: Plant response rating, Cocklebur): 98%
- pest or weed control at 250 g/ha (cocklebur; Xanthium strumarium, pre-emergence, 312 h, 250 g ai/ha, scale 0 to 100 (0 no effect, 100 complete control), visual, 12 to 14 days, read-out: Plant response rating, Cocklebur): 100%
- pest or weed control at 500 g/ha (cocklebur; Xanthium strumarium, pre-emergence, 312 h, Preemergence, 500 g ai/ha, scale 0 to 100, 0 no effect, 100 complete control, read-out: Cocklebur plant response rating): 100%
- pest or weed control at 62 g/ha (large crabgrass; Digitaria sanguinalis, pre-emergence, 312 h, 62 g ai/ha, preemergence, scale 0 to 100, read-out: Plant response rating, Crabgrass, Large): 60%
- pest or weed control at 125 g/ha (large crabgrass; Digitaria sanguinalis, pre-emergence, 312 h, 125 g ai/ha, scale 0 (no effect) to 100 (complete control), visual, 12 to 14 days, read-out: Plant response rating, Crabgrass, Large): 85%
- pest or weed control at 250 g/ha (large crabgrass; Digitaria sanguinalis, pre-emergence, 312 h, 250 g ai/ha, scale 0 to 100 (0 no effect, 100 complete control), visual, 12 to 14 days, read-out: Plant response rating, Crabgrass, Large): 90%
- Crabgrass, Large plant response rating (large crabgrass; [4]): 100
- pest or weed control at 62 g/ha (pigweed; Amaranthus retroflexus, pre-emergence, 62 g ai/ha, preemergence, scale 0 to 100, read-out: Plant response rating, Pigweed): 95%
- pest or weed control at 125 g/ha (pigweed; Amaranthus retroflexus, pre-emergence, 125 g ai/ha, scale 0 (no effect) to 100 (complete control), visual, 12 to 14 days, read-out: Plant response rating, Pigweed): 98%
- Pigweed plant response rating (pigweed; [4]): 100
- pest or weed control at 62 g/ha ([1]; Helianthus annuus, pre-emergence, 62 g ai/ha, preemergence, scale 0 to 100, read-out: Plant response rating, Sunflower): 25%
- pest or weed control at 125 g/ha ([1]; Helianthus annuus, pre-emergence, 125 g ai/ha, scale 0 (no effect) to 100 (complete control), visual, 12 to 14 days, read-out: Plant response rating, Sunflower): 45%
- Sunflower plant response rating [1]: 85
- pest or weed control at 62 g/ha (velvetleaf [2]; Abutilon theophrasti, pre-emergence, 62 g ai/ha, preemergence, scale 0 to 100, read-out: Plant response rating, Velvetleaf): 43%
- pest or weed control at 125 g/ha (velvetleaf [2]; Abutilon theophrasti, pre-emergence, 125 g ai/ha, scale 0 (no effect) to 100 (complete control), visual, 12 to 14 days, read-out: Plant response rating, Velvetleaf): 63%
- Velvetleaf plant response rating (velvetleaf [2]; [4]): 100

Structure (SMILES): CCNC(=O)c1ccc(F)c(NC(=O)c2cn(C(C)(C)C)nc2CC)c1 [Compound 193]
- Rice plant response rating (0 to 100 scale) (rice; 125 g ai/ha, 0 = no effect, 100 = complete control, preemergence): 80
- Plant response rating, Rice (rice; 500 g ai/ha, visual rating 0-100, 0 no effect, 100 complete control, preemergence): 100
- Plant response rating, Cocklebur (cocklebur; [5]): 0
- Cocklebur plant response rating (cocklebur; [6]): 100
- Plant response rating, Crabgrass, Large (large crabgrass; [5]): 40
- Plant response rating, Crabgrass, Large (large crabgrass; [7]): 85
- Plant response rating, Crabgrass, Large (large crabgrass; [8]): 85
- Crabgrass, Large plant response rating (large crabgrass; [4]): 100
- Plant response rating, Pigweed (pigweed; [5]): 100
- Plant response rating, Pigweed (pigweed; [7]): 100
- Plant response rating, Pigweed (pigweed; [8]): 100
- Pigweed plant response rating (pigweed; [4]): 100
- Plant response rating, Sunflower [1, 5]: 0
- Plant response rating, Sunflower [1, 7]: 0
- Plant response rating, Sunflower [1, 8]: 0
- Sunflower plant response rating [1]: 50
- Plant response rating, Velvetleaf (velvetleaf [2]; [5]): 0
- Plant response rating, Velvetleaf (velvetleaf [2]; [7]): 0
- Plant response rating, Velvetleaf (velvetleaf [2]; [8]): 70
- Velvetleaf plant response rating (velvetleaf [2]; [4]): 100

Structure (SMILES): C=CCn1nc(C(C)(C)C)cc1C(=O)Nc1cccc(C(=O)NCC)c1 [Compound 56]
- Rice plant response rating (rice; Preemergence, 500 g ai/ha, scale 0 to 100): 70
- Plant response rating, Rice (rice; preemergence, 125 g ai/ha, 0 to 100 scale, 0 is no effect, 100 is complete control): 40
- Plant response rating (0 = no effect, 100 = complete control), Cocklebur (cocklebur; 62 g ai/ha, preemergence): 0
- Plant response rating, Cocklebur (cocklebur; [7]): 0
- Cocklebur plant response rating (cocklebur; [6]): 0
- Plant response rating (0 = no effect, 100 = complete control), Crabgrass, Large (large crabgrass; 62 g ai/ha, preemergence): 95
- Plant response rating, Crabgrass, Large (large crabgrass; [7]): 100
- Plant response rating, Crabgrass, Large (large crabgrass; [9]): 100
- Crabgrass, Large plant response rating (large crabgrass; [4]): 100
- Plant response rating (0 = no effect, 100 = complete control), Pigweed (pigweed; 62 g ai/ha, preemergence): 100
- Plant response rating, Pigweed (pigweed; [7]): 100
- Plant response rating, Pigweed (pigweed; [9]): 100
- Pigweed plant response rating (pigweed; [4]): 100
- Plant response rating (0 = no effect, 100 = complete control), Sunflower ([1]; 62 g ai/ha, preemergence): 0
- Plant response rating, Sunflower [1, 7]: 0
- Plant response rating, Sunflower [1, 9]: 0
- Sunflower plant response rating [1]: 0
- Plant response rating (0 = no effect, 100 = complete control), Velvetleaf (velvetleaf [2]; 62 g ai/ha, preemergence): 20
- Plant response rating, Velvetleaf (velvetleaf [2]; [7]): 35
- Plant response rating, Velvetleaf (velvetleaf [2]; [9]): 50
- Velvetleaf plant response rating (velvetleaf [2]; [4]): 100

Structure (SMILES): CCNC(=O)c1cccc(NC(=O)c2cc(C(C)(C)C)nn2CC(F)(F)F)c1 [Compound 31]
- Foxtail, Giant plant response rating (giant foxtail; [10]): 45
- Plant response rating, Foxtail, Giant (giant foxtail; [11]): 70
- Foxtail, Giant plant response rating (giant foxtail; [12]): 50
- Foxtail, Giant plant response rating (giant foxtail; [13]): 20
- Velvetleaf plant response rating (velvetleaf [3]; [10]): 20
- Plant response rating, Velvetleaf (velvetleaf [3]; [11]): 30
- Velvetleaf plant response rating (velvetleaf [3]; [12]): 35
- Velvetleaf plant response rating (velvetleaf [3]; [13]): 10
- Plant response rating (0 = no effect, 100 = complete control), Cocklebur (cocklebur; 62 g ai/ha, preemergence): 0
- Plant response rating, Cocklebur (cocklebur; [14]): 20
- Plant response rating, Cocklebur (cocklebur; [9]): 40
- Cocklebur plant response rating (cocklebur; Postemergence, 500 g ai/ha, scale 0 to 100): 60
- Plant response rating, Cocklebur (cocklebur; [15]): 40
- Plant response rating, Cocklebur (cocklebur; [16]): 40
- Plant response rating, Cocklebur (cocklebur; [17]): 40
- Plant response rating (0 = no effect, 100 = complete control), Crabgrass, Large (large crabgrass; 62 g ai/ha, preemergence): 90
- Plant response rating, Crabgrass, Large (large crabgrass; [14]): 100
- Plant response rating, Crabgrass, Large (large crabgrass; [9]): 100
- Crabgrass, Large plant response rating (large crabgrass; Postemergence, scale 0 to 100): 70
- Plant response rating, Crabgrass, Large (large crabgrass; [15]): 60
- Plant response rating, Crabgrass, Large (large crabgrass; [16]): 60
- Crabgrass, Large plant response rating (large crabgrass; [4]): 100
- Plant response rating, Crabgrass, Large (large crabgrass; [17]): 50
- Plant response rating (0 = no effect, 100 = complete control), Pigweed (pigweed; 62 g ai/ha, preemergence): 100
- Plant response rating, Pigweed (pigweed; [9]): 100
- Pigweed plant response rating (pigweed; Postemergence, scale 0 to 100): 100
- Plant response rating, Pigweed (pigweed; [16]): 100
- Pigweed plant response rating (pigweed; [4]): 100
- Plant response rating, Pigweed (pigweed; [18]): 90
- Plant response rating, Pigweed (pigweed; [17]): 90
- Plant response rating (0 = no effect, 100 = complete control), Sunflower ([1]; 62 g ai/ha, preemergence): 0
- Plant response rating, Sunflower [1, 9]: 20
- Sunflower plant response rating [1]: 20
- Plant response rating (0 = no effect, 100 = complete control), Velvetleaf (velvetleaf [2]; 62 g ai/ha, preemergence): 20
- Plant response rating, Velvetleaf (velvetleaf [2]; [9]): 100
- Velvetleaf plant response rating (velvetleaf [2]; Postemergence, scale 0 to 100): 70
- Plant response rating, Velvetleaf (velvetleaf [2]; [16]): 70
- Velvetleaf plant response rating (velvetleaf [2]; [4]): 100
- Plant response rating, Velvetleaf (velvetleaf [2]; [18]): 60
- Plant response rating, Velvetleaf (velvetleaf [2]; [17]): 50
